According to patent publication US6384052B1, “Anticoccidial compounds” (Merck & Co., Inc., priority 1999, dated 2002):

Key:
[1] = Acute Toxicity Evaluation (intraperitoneal, twice a day for three days); assay type: in vivo; settings: 100 mg/kg/day intraperitoneally, necropsy on day 4, two chickens per group
Procedure: For acute toxicity evaluation, chickens are dosed intraperitoneally twice a day at desired dose for three days. On day 4 birds are necropsied and examined for gross lesions and weight suppression. Two chickens are used in each treatment group.

[2] = Toxicity Evaluation (38-day medicated diet, liver necrosis and urate crystal deposition); assay type: in vivo, male broiler chickens; settings: 125 ppm in diet; for chickens with urate crystal deposition in the kidneys: affected/examined
Procedure: (§1) Compound of the present invention and 2-(4-fluorophenyl)-5-(N-methylpiperidin-4-yl)-3-(4-pyridyl)pyrrole were evaluated in anticoccidiosis assay and toxicology studies. In these studies, medicated diets were prepared by dissolving the proper quantity of the test compound in dimethylsulfoxide or acetone, mixing the resultant solution into a few grams of the basal diet, and then placing the mixture under a fume hood for dehydration. The dry mixture is made into a uniform premix with an electric grinder, and then blended with the desired quantity of basal diet for the final formulation in a commercial bowl mixer.
Day-old male broiler chickens are received on Day 0 of the trial, weighed, wingbanded, and placed on medicated or control diet in standard battery cages. Three treatments are used in the study: (A) medicated diet containing 125 ppm of 2-(4-fluorophenyl)-5-(N-methylpiperidin-4-yl)-3-(4-pyridyl)pyrrole; (B) medicated diet containing 125 ppm of 2-(4-fluorophenyl)-5-(N-ethylpiperidin-4-yl)-3-(4-pyridyl)pyrrole; and (C) no medication. A total of 48 chickens are utilized per treatment. Of these, 12 birds (2 replicates of 6) are examined on D7, D14, D24 and D38 for liver necrosis and urate crystal deposition. Growth rates, feed efficiency and plasma levels are determined for background information. The trial is terminated on D38.

[3] = tested on: Eimeria acervulina, E. tenella; assay: Anticoccidiosis assay (oocyst production in infected chickens on medicated diet); assay type: in vivo, White Leghorn chickens; parameters: key: at least 80% reduction in oocyst production are considered active; those with 50-79% are considered partially active; those with <50% are considered inactive; settings: 100 ppm in diet; chickens infected with E. acervulina or E. tenella
Procedure: as §1
One-day-old White Leghorn chickens are obtained from a commercial hatchery and acclimated in a holding room. At three days of age the test animals are selected by weight, wingbanded, and randomly placed on medicated or control diets for the duration of the experiment. One or two replicates of two birds are utilized per treatment. Following 24 h premedication, in each replicate one bird is infected with Eimeria acervulina, the other bird is infected with E. tenella. Both strains of Eimeria are sensitive to all anticoccidial products, and have been maintained in laboratory conditions for over 25 years. […] The measured parameters are weight gain, feed consumption and oocyst production. E. tenella lesion scores are also recorded for background information. […]

Structure (SMILES)	liver necrosis / gross liver lesions at necropsy [1]	chickens showing liver necrosis or urate crystal deposition ([2]; 12 birds examined on each of D7, D14, D24 and D38)	anticoccidial activity (reduction in oocyst production) [3]	chickens with urate crystal deposition in the kidneys ([2]; examined on D14)	chickens with urate crystal deposition in the kidneys ([2]; examined on D38)
CCN1CCC(c2cc(-c3ccncc3)c(-c3ccc(F)cc3)[nH]2)CC1 [2-(4-fluorophenyl)-5-(N-ethylpiperidin-4-yl)-3-(4-pyridyl)pyrrole]	none	None	active		
CN1CCC(c2cc(-c3ccncc3)c(-c3ccc(F)cc3)[nH]2)CC1 [2-(4-fluorophenyl)-5-(N-methylpiperidin-4-yl)-3-(4-pyridyl)pyrrole]	demonstrated gross liver lesions		active	3/12	4/12
